Experiments:
[1] = microbe, parasite or virus in culture; settings: Mycobacterium tuberculosis, 96 h, read-out: pIC50 (converted)
[2] = microbe, parasite or virus in culture; settings: Mycobacterium tuberculosis, 72 h, read-out: pIC50 (converted)

SMILES	IC50 [1] [µM]	IC50 [2] [µM]
Cc1cn(Cc2nc(CC(C)C)nn2-c2ccccn2)c(=O)[nH]c1=O	> 50.1	> 50.1
O=C1NCC2(CCCN(C(=O)c3c[nH]nc3-c3cccs3)C2)O1 (configuration not stated)	> 50.1	> 50.1
N[C@H]1CCCN(S(=O)(=O)c2ccc(C(=O)NCC(F)F)cc2)C1	> 50.1	> 50.1
Cc1cc(CN2CCCC2)cc(Oc2ccc3c(c2)CC(CN)O3)c1 (configuration not stated)	> 50.1	> 50.1
CSCCC1c2nc[nH]c2CCN1Cc1[nH]c2ccc(F)cc2c1C (configuration not stated)	> 50.1	> 50.1
Cc1nc2c(c(N3CCC(CCn4cccn4)CC3)n1)CCNCC2	> 50.1	> 50.1
CS(=O)(=O)CCC(=O)N1C[C@@H]2CC[C@H](C1)N(Cc1ccccc1)C2=O	> 50.1	> 50.1
CCc1cc(CN(C)C(=O)c2cnon2)on1	> 50.1	> 50.1
O=C(c1cc[nH]n1)N1CCCC(c2cccc(-n3ccnc3)n2)C1 (configuration not stated)	> 50.1	> 50.1
Cc1nc(-c2cccc(C(=O)O)c2)cc(C2CCN(C(C)C)C2)n1 (configuration not stated)	> 50.1	> 50.1
Cc1ccc(-c2noc(CN3CC(n4cc(C)cn4)C3)n2)cc1	22.6	49.1
NC(=O)c1cc(C2CCCN(C(=O)CCc3ccncc3)C2)n[nH]1 (configuration not stated)	> 50.1	> 50.1
CNc1cc2c(nn1)CCN(C(=O)c1cccc3c1OCCO3)C2	> 50.1	> 50.1
O=C(NCc1ccco1)N1CCN(Cc2ccc3c(c2)CCO3)CC1	5.53	11.4
CCc1nnc2n1CCN(C(=O)CN(CC)CC)C2	> 50.1	> 50.1
Cc1ccc(C(=O)N2CCCC(c3cc(C(F)(F)F)[nH]n3)C2)o1 (configuration not stated)	26.2	15.4
Cn1c(C2CC2)nc2c1CCN(Cc1nc(-c3ccsc3)no1)C2	> 50.1	16.2
CCc1nc(C2CCCN(C(=O)c3ccccc3Cl)C2)no1 (configuration not stated)	> 50.1	23.9
CC(C)c1noc(CN2CCN(C(=O)c3ccc(F)cc3)CC2)n1	> 50.1	> 50.1
O=C(c1cc(C2CC2)[nH]n1)N1CCN(Cc2ccc3c(c2)OCO3)CC1	10.3	9.81
Cc1ccc(NC2CCN(C(=O)C(C)n3cncn3)CC2)nn1 (configuration not stated)	> 50.1	> 50.1
CCc1nnc2n1CCN(C(C(=O)NC1CC1)c1ccccc1)C2 (configuration not stated)	> 50.1	> 50.1
CSCc1ccc(C(=O)NCCCNc2ccc(C(F)(F)F)cn2)cc1	> 50.1	> 50.1
CC(=O)NCc1ccc(C(=O)NC2CCc3nc(C)cn3C2)o1 (configuration not stated)	> 50.1	> 50.1
COCC(=O)NC(C)Cc1cccc(Cl)c1 (configuration not stated)	18.5	11.2
Fc1ccccc1-c1nc(CNCCn2cccn2)cs1	> 50.1	> 50.1

SMILES	IC50 [1] [µM]	IC50 [2] [µM]
Cc1ccc(-c2nc(CNC(C)Cn3cccn3)cs2)o1 (configuration not stated)	> 50.1	> 50.1
Cc1nc(C2CCCN(C(=O)c3cc4c(s3)CCCC4)C2)no1 (configuration not stated)	11.7	40.8
Cc1cnn(CC2CCCN2Cc2ncc(-c3ccc(F)cc3)o2)c1 (configuration not stated)	> 50.1	27
CC(C)(C)c1nc(CN2CCC(c3ccnn3CCO)CC2)no1	> 50.1	> 50.1
CN(Cc1nc2ccccc2o1)C1CCCN(c2cccnn2)C1 (configuration not stated)	> 50.1	> 50.1
CCc1nc(CN(C)C2CCN(CCC(=O)N3CCCCC3)C2)no1 (configuration not stated)	> 50.1	> 50.1
CC(C)OCc1cccc(CNc2cnn(C)c(=O)c2Cl)c1	5.63	19.1
COCCN1CCC(CNCc2c[nH]nc2C(C)(C)C)CC1	> 50.1	39.9
Cc1cnn(CC2CN(Cc3nc4ccccc4s3)CCO2)c1 (configuration not stated)	14.7	34.7
CN(Cc1nnc2n1CCC2)C(=O)c1ccc2c(c1)OCCCO2	> 50.1	> 50.1
Cc1csc(N2CCN(C(=O)c3ccc(C)s3)CC2)n1	15.5	> 50.1
COc1ccc(COCC(=O)N2CCCC(n3cncn3)C2)cc1 (configuration not stated)	> 50.1	> 50.1
CCn1ccnc1CN1CCCC1Cn1cc(C)cn1 (configuration not stated)	> 50.1	46.3
Cc1nc(C2CCCN(C(=O)c3ccc(S(C)(=O)=O)cc3)C2)no1 (configuration not stated)	> 50.1	> 50.1
O=C(NCCNc1ccc(C(F)(F)F)cn1)c1ccc(Cl)cc1F	19.3	25.1
CC(CCc1ccco1)NC(=O)Nc1cc(C(F)(F)F)c[nH]c1=O (configuration not stated)	43.3	15.9
O=C(NCC1CC1)N1CCN(Cc2ccc3c(c2)OCCO3)CC1	17.9	45.6
Cc1nccn1C1CCCN(C(=O)c2ccc(N3CCCC3)nn2)C1 (configuration not stated)	> 50.1	> 50.1
N#CC1(C(=O)NCCCNc2ccc(C(F)(F)F)cn2)CCCC1	1.69	0.198
COc1cc(C(=O)Nc2nc(C)no2)ccc1C	> 50.1	> 50.1
CCc1c(C(=O)NCC(=O)OCC2CC2)cnn1-c1ccc(C)cc1	18.9	45.9
NC(=O)NC(=O)CCN1CCCN(c2nccs2)CC1	25.1	35.5
CCOCCN1CCn2c(C)nnc2C1	> 50.1	> 50.1
Cc1cnn(C2CCCN(C(=O)c3ccnc(N(C)C)c3)C2)c1 (configuration not stated)	> 50.1	> 50.1
CC(Cn1cccn1)NCc1csc(-c2ccccc2F)n1 (configuration not stated)	4.59	10.4
OCC1CCCN1c1cc(N2CCC(OC3CCCC3)CC2)ncn1 (configuration not stated)	13.8	15.5

SMILES	IC50 [1] [µM]	IC50 [2] [µM]
CC(C)c1nccn1C1CCCN(C(=O)c2ccc3[nH]nnc3c2)C1 (configuration not stated)	> 50.1	> 50.1
CC(C)c1nnc2n1CCN(C(=O)c1ccc(-n3cnnc3)cc1)C2	> 50.1	> 50.1
O=C(Cc1ccc(-n2cccn2)cc1)N1CCCC(n2cccn2)C1 (configuration not stated)	> 50.1	> 50.1
O=C(Cc1ccc2c(c1)OCCO2)N1CCCC(n2ccnc2)C1 (configuration not stated)	> 50.1	> 50.1
CCN1CCC(CNCc2c[nH]nc2C(C)(C)C)C1 (configuration not stated)	16.4	> 50.1
O=C(NCCN1CCCC1)c1ccc2ccccc2n1	249	146
CC(C)COCC(O)CNc1nnc(C(C)C)s1 (configuration not stated)	86.9	111
COc1ccc(NC(C(N)=O)c2ccc(Br)cc2)cn1 (configuration not stated)	198	148
CCNc1nnc(SC(C)C)s1	54.2	120
COc1cc(OC)cc(C2(F)CCNCC2)c1	287	226
Cc1ccc(S(=O)(=O)N2CCC[C@@H](N)C2)c(C)c1	276	219
CCNC(=O)CNc1ccc(Br)cc1	210	162
CC(C)N(C)S(=O)(=O)N(C)Cc1ccc(Br)o1	394	204
O[C@@H]1CNC[C@H]1n1ccnn1	289	286
O=C1NCC(C(=O)NCCCc2ccc(Cl)cc2)N1 (configuration not stated)	> 501	> 501
NCCc1nc(-c2ccccn2)cs1	1.16	2.67
CC(C)CCNC(=O)CCn1cc(Br)ccc1=O	105	142
C=C(C)Cn1c(S(C)(=O)=O)nc2ccccc21	> 501	135
c1cncc(-c2nc(SCC3CCCCO3)n[nH]2)c1 (configuration not stated)	> 501	229
O=C(CCn1cccn1)N1CCc2sccc2C1	> 501	117
COc1ccccc1OCC(C)CN (configuration not stated)	123	82.9
O=C(NCC1CCN(C2CC2)C1)c1ccccc1F (configuration not stated)	376	423
COCC(C)(CCO)NCC(=O)Nc1ccccc1I (configuration not stated)	> 501	238
CC(=O)Nc1nc(C(=O)NCc2ccc(C)s2)cs1	268	224
COc1cccc(S(=O)(=O)CCN2CCN(C)CC2)c1	> 501	> 501
CNc1cccnc1N1CCCC1	41.3	22

SMILES	IC50 [1] [µM]	IC50 [2] [µM]
O=C(Cn1cnnn1)NCC1(c2ccccc2)CCC1	> 501	304
COC(=O)CCCC(=O)N1CCCc2ccc(F)cc21	277	213
Cc1nnc(SCc2ccc(Cl)s2)n1CC(N)=O	> 501	> 501
CC[C@H](N)C(=O)N(C)CCOc1cccc(Cl)c1	263	377
N#Cc1nc(NCCSCCCO)ccc1Cl	418	221
CNC(=O)[C@@H](C)Nc1ccc(C(F)(F)F)cn1	> 501	> 501
O=C(c1cnsn1)N1CCCSc2ccc(F)cc21	164	200
Cc1cc(OCC(=O)NCc2ccccc2F)no1	118	73.3
COc1cccc(CNCCNc2cccc(C)n2)c1	> 501	248
Cc1cccc(OCC(O)CN)c1 (configuration not stated)	345	179
CN(C1CCCC1)S(=O)(=O)NCCNc1ccccn1	189	94.1
CN1CCCN(C(=O)COc2cccc(Cl)c2)CC1	> 501	283
COc1cccc(CNc2nc(C(C)C)nn2C)n1	> 501	315
COc1ccc(N2CCCNCC2)cc1	276	308
O=C1CCN(CCOc2cc(F)cc(Br)c2)CCN1	279	198
CC(=O)c1sc(NCCc2ccccn2)nc1C	> 501	> 501
CCc1ccc(NC(=O)CN2CC[C@@H](N)C2)cc1	> 501	199
O=C(NCC(=O)N1CCCC1)c1csc2ccccc12	71.2	43.9
CNCC(=O)NC(C)c1nc(-c2ccc(Br)cc2)no1 (configuration not stated)	261	197
COc1cc(N2CCNCC2)ccc1F	> 501	281
NCCc1nc(-c2cccc(Cl)c2)no1	190	122
Brc1cccc2c1CNCCO2	> 501	213
OCCC1COc2ccc(F)cc2N1 (configuration not stated)	> 501	> 501

Source: ChEMBL document CHEMBL3988442, “University of Dundee, Small-Polar-MMV Screening Library” (2021)
